Experimental data: ChEMBL document CHEMBL1127135, “Synthesis and biological properties of 3-[()-2-(1,2,3-Thiadiazolyl)ethenyl]-substituted cephalosporins and related compounds: new oral cephalosporins” (Bioorg Med Chem Lett, 1993)
Values after ≈ are worked out from the molar mass of the structure shown. One block for each molecule: values may come before it.

How the values were obtained:
[1] = Evaluated for pharmacokinetic parameter area under curve in rat at the dose 50 mg/kg ( 0-8 hr ); format: ADME, organism-based; parameters: time < 8 hr, dose 50 mg/kg; conditions: in vivo
[2] = Evaluated for pharmacokinetic parameter half-life in mouse at the dose 20 mg/kg; format: ADME, organism-based; parameters: dose 20 mg/kg; conditions: in vivo
[3] = Evaluated for pharmacokinetic parameter Cmax in rat at the dose 50 mg/kg; format: ADME, organism-based; parameters: dose 50 mg/kg; conditions: in vivo
[4] = Evaluated for pharmacokinetic parameter tmax in mouse at the dose 20 mg/kg; format: ADME, organism-based; parameters: dose 20 mg/kg; conditions: in vivo
[5] = Evaluated for pharmacokinetic parameter tmax in rat at the dose 50 mg/kg; format: ADME, organism-based; parameters: dose 50 mg/kg; conditions: in vivo
[6] = Evaluated for pharmacokinetic parameter half-life in rat at the dose 50 mg/kg; format: ADME, organism-based; parameters: dose 50 mg/kg; conditions: in vivo
[7] = Evaluated for pharmacokinetic parameter urine recovery in rabbit at the dose 20 mg/kg ( 0-24 hr ); format: ADME, organism-based, Oryctolagus cuniculus; parameters: dose 20 mg/kg; conditions: read-out: UR
[8] = Evaluated for pharmacokinetic parameter urine recovery in rat at the dose 50 mg/kg ( 0-24 hr ); format: ADME, organism-based; parameters: dose 50 mg/kg; conditions: read-out: UR
[9] = Evaluated for pharmacokinetic parameter Cmax in rabbit at the dose 20 mg/kg; format: ADME, organism-based, Oryctolagus cuniculus; parameters: dose 20 mg/kg; conditions: in vivo
[10] = Evaluated for pharmacokinetic parameter area under curve in mouse at the dose 20 mg/kg (0-4 hr); format: ADME, organism-based; parameters: time < 4 hr, dose 20 mg/kg; conditions: in vivo
[11] = Evaluated for pharmacokinetic parameter area under curve in rabbit at the dose 20 mg/kg ( 0-4 hr ); format: ADME, organism-based, Oryctolagus cuniculus; parameters: time < 4 hr, dose 20 mg/kg; conditions: in vivo
[12] = Evaluated for pharmacokinetic parameter tmax in rabbit at the dose 20 mg/kg; format: ADME, organism-based, Oryctolagus cuniculus; parameters: dose 20 mg/kg; conditions: in vivo
[13] = Evaluated for pharmacokinetic parameter half-life in rabbit at the dose 20 mg/kg; format: ADME, organism-based, Oryctolagus cuniculus; parameters: dose 20 mg/kg; conditions: in vivo
[14] = Evaluated for pharmacokinetic parameter Cmax in mouse at the dose 20 mg/kg; format: ADME, organism-based; parameters: dose 20 mg/kg; conditions: in vivo
[15] = Evaluated for pharmacokinetic parameter urine recovery in mouse at the dose 20 mg/kg ( 0-24 hr ); format: ADME, organism-based; parameters: dose 20 mg/kg; conditions: read-out: UR
Enterococcus hirae = assay: Antibacterial activity against Enterococcus hirae ATCC 8043 was determined; format: functional
Escherichia coli [16] = assay: Antibacterial activity against Escherichia coli ATCC 25922 was determined; format: functional
Klebsiella pneumoniae = assay: Antibacterial activity against Klebsiella pneumoniae IFO 3317 was determined; format: functional
Morganella morganii = assay: Antibacterial activity against Morganella morganii IID 602 was determined; format: functional
Escherichia coli [17] = assay: Antibacterial activity against Escherichia coli NIHJ JC-2 was determined; format: functional
[18] = system: Staphylococcus epidermidis; assay: Antibacterial activity against Staphylococcus epidermidis IID 866 was determined; format: functional
Staphylococcus aureus [19] = assay: Antibacterial activity against Staphylococcus aureus 209P-JC was determined; format: functional
Proteus mirabilis = assay: Antibacterial activity against Proteus mirabilis IFO3849 was determined; format: functional
Serratia marcescens = assay: Antibacterial activity against Serratia marcescens IID 618 was determined; format: functional
Providencia rettgeri = assay: Antibacterial activity against Providencia rettgeri IFO3850 was determined; format: functional
Pseudomonas aeruginosa = assay: Antibacterial activity against Pseudomonas aeruginosa NCTC 10490 was determined; format: functional
Enterobacter cloacae = assay: Antibacterial activity against Enterobacter cloacae 963 was determined; format: functional
Staphylococcus aureus [20] = assay: Antibacterial activity against Staphylococcus aureus Smith was determined; format: functional
Klebsiella aerogenes = assay: Antibacterial activity against Enterobacter aerogenes IFO 13048 was determined; format: functional
Moraxella catarrhalis = assay: Antibacterial activity against M(B). catarrhalis ATCC 25238 was determined; format: functional
Micrococcus luteus = assay: Antibacterial activity against Micrococcus luteus ATCC 9341 was determined; format: functional
Proteus vulgaris = assay: Antibacterial activity against Proteus vulgaris HX-19 was determined; format: functional
Staphylococcus aureus [21] = assay: Antibacterial activity against Staphylococcus aureus ATCC 25923 was determined; format: functional

AUC at 8 h [1]: 37900 ng·h/mL
half-life [2]: 2.7 h
Cmax [3]: 15200 ng/mL
Tmax [4]: 0.5 h
Tmax [5]: 1 h
half-life [6]: 1.8 h
dose excreted [7]: 17.2%
dose excreted [8]: 9.5%
Cmax [9]: 2400 ng/mL
AUC at 4 h [10]: 62000 ng·h/mL
AUC at 4 h [11]: 10500 ng·h/mL
Tmax [12]: 1 h
half-life [13]: 2.3 h
Cmax [14]: 20500 ng/mL
dose excreted [15]: 42.8%
SMILES: CC(C)(C)C(=O)OCOC(=O)C1=C(/C=C\c2csnn2)CSC2C(NC(=O)/C(=N\O)c3csc(N)n3)C(=O)N12 (stereo not drawn)

MIC (Enterococcus hirae): 25 µg/mL (≈ 50.7 µM)
MIC (Escherichia coli [16]): 0.2 µg/mL (≈ 0.405 µM)
MIC (Klebsiella pneumoniae): 0.05 µg/mL (≈ 0.101 µM)
MIC (Morganella morganii): 0.05 µg/mL (≈ 0.101 µM)
MIC (Escherichia coli [17]): 0.1 µg/mL (≈ 0.203 µM)
MIC [18]: 0.2 µg/mL (≈ 0.405 µM)
MIC (Staphylococcus aureus [19]): 0.2 µg/mL (≈ 0.405 µM)
MIC (Proteus mirabilis): 0.1 µg/mL (≈ 0.203 µM)
MIC (Serratia marcescens): 0.78 µg/mL (≈ 1.58 µM)
MIC (Providencia rettgeri): ≤ 0.006 µg/mL
SMILES: Cc1nnsc1/C=C\C1=C(C(=O)O)N2C(=O)C(NC(=O)/C(=N\O)c3csc(N)n3)C2SC1 (stereo not drawn)

MIC (Pseudomonas aeruginosa): > 100 µg/mL
MIC (Enterobacter cloacae): 0.39 µg/mL (≈ 0.79 µM)
MIC (Enterococcus hirae): 25 µg/mL (≈ 50.7 µM)
MIC (Escherichia coli [16]): 0.2 µg/mL (≈ 0.405 µM)
MIC (Klebsiella pneumoniae): 0.025 µg/mL (≈ 0.0507 µM)
MIC (Morganella morganii): 0.05 µg/mL (≈ 0.101 µM)
MIC (Staphylococcus aureus [20]): 0.2 µg/mL (≈ 0.405 µM)
MIC (Escherichia coli [17]): 0.39 µg/mL (≈ 0.79 µM)
MIC (Klebsiella aerogenes): 0.78 µg/mL (≈ 1.58 µM)
MIC (Moraxella catarrhalis): 0.05 µg/mL (≈ 0.101 µM)
MIC [18]: 0.39 µg/mL (≈ 0.79 µM)
MIC (Staphylococcus aureus [19]): 0.2 µg/mL (≈ 0.405 µM)
MIC (Proteus mirabilis): 0.39 µg/mL (≈ 0.79 µM)
MIC (Serratia marcescens): 0.78 µg/mL (≈ 1.58 µM)
MIC (Providencia rettgeri): ≤ 0.006 µg/mL
MIC (Micrococcus luteus): 0.025 µg/mL (≈ 0.0507 µM)
MIC (Proteus vulgaris): 0.05 µg/mL (≈ 0.101 µM)
MIC (Staphylococcus aureus [21]): 0.39 µg/mL (≈ 0.79 µM)
SMILES: Cc1snnc1/C=C\C1=C(C(=O)O)N2C(=O)C(NC(=O)/C(=N\O)c3csc(N)n3)C2SC1 (stereo not drawn)
